Experimental data published in PMC11756387, “Improving the solubility of pseudo-hydrophobic chemicals through co-crystal formulation” (PNAS Nexus, 2025).
Values after ≈ are worked out from the molar mass of the structure shown. Blank lines part the entries; values can stand above or below the compound they belong to.

Key:
AD tau = AD tau (Homo sapiens, UniProt P10636); type: cell-based
[1] = buffer
physchem [2] = conditions: water, thermodynamic from solid
physchem [3] = conditions: pH 7.4
in vitro [4] = conditions: human, microsomes
in vitro [5] = conditions: male, mouse, microsomes
[6] = Kinetic solubility in simulated intestinal fluid (SIF); conditions: pH 6.8

Sequence of AD tau (P10636 623-695 limits assumed): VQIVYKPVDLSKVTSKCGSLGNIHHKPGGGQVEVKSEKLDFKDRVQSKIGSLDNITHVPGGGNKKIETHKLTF

SMILES: [Ca+2].[OH-].[OH-] [Ca(OH)2, calcium hydroxide]
Inhibitory activity of counterions toward tau seeding (AD tau): neither TEA nor Ca(OH)2 exhibited inhibitory activity

Fraction remaining dissolved in aqueous solution after centrifugation [1]: about 20%
solubility thermodynamic (physchem [2]): 650 µg/mL (≈ 2030 µM)
logD at 1 h (physchem [3]): 0.63
half-life at 1 µM (in vitro [4]): 3.38 h
remaining at 1 h, 1 µM (in vitro [4]): ~100%
half-life at 1 µM (in vitro [5]): 1.57 h
SMILES: O=C1c2c(O)cc(O)cc2O[C@H](c2cc(O)c(O)c(O)c2)[C@H]1O [DHM, dihydromyricetin]

solubility kinetic at 2 h [6]: ~300 µM (≈ 88.8 µg/mL)
SMILES: O=C(O)Cc1ccccc1Nc1c(Cl)cccc1Cl [diclofenac]
